Test results: patent US20120108538A1, “SULFATED POLYSACCHARIDES HAVING ANTIPLASMODIAL ACTIVITY AND METHODS AND PRODUCTS FOR IDENTIFYING ANTIPLASMODIAL ACTIVITY” (priority 2009, published 2012)
“Also recorded” adds a separate entry of the source.

Assays:
[1] = test system: P. falciparum merozoite invasion of erythrocytes; assay: Live video microscopy of merozoite invasion; format: cell-based, Plasmodium falciparum; details: 100 μg/mL; 4529 seconds filming, 15 rupture events
Description: Parasites cultures of 5-10% late stage schizonts were filmed with video microscopy in normal culture media, 37° C. 6% CO2 with humidification with or without 100 μg/mL of inhibitory compounds added to cultures as described previously. 35. Gilson P R, Crabb B S (2009) Morphology and kinetics of the three distinct phases of red blood cell invasion by Plasmodium falciparum merozoites. Int J Parasitol 39: 91-96.
A mechanism of action of heparin was next determined using live time-lapse microscopy. In control parasite cultures, schizont rupture and step-wise invasion of erythrocytes by merozoites was readily observed (FIG. 7C). During merozoite invasion of erythrocytes, Applicant observed initial contact with erythrocyte surface resulting in brief deformation of erythrocytes, merozoite reorientation, mechanical invasion resulting in erythrocyte deformation, and erythrocyte re-shaping upon complete invasion, as reported previously. […] Initial contact of merozoites with the erythrocyte surface was also observed; however, contact between erythrocytes and merozoites was not sustained, and merozoites dissociated after various lengths of time (FIG. 7D). No successful invasion events were observed; additionally, reorientation of merozoites and deformation of erythrocytes were not clearly seen, although the observation of merozoite reorientation is limited due to microscope resolution. […]

[2] = test system: P. falciparum blood stage growth; assay: Growth inhibition assay (GIA), flow cytometry; format: cell-based, Plasmodium falciparum; details: for inhibition of different P. falciparum lines: 3D7, W2mef, D10, E8B, XIE, HCS3, SA-dependent and SA-independent invasion
Description: P. falciparum was cultured as described. Parasites were maintained in culture media of RPMI-HEPES supplemented with 5% (vol/vol) heat inactivated (56° C. 1 hr) human serum (Australian Red Cross Blood Bank),. […] (Gibco), 10mM L-glutamine (Gibco) and 25 mM […]. Parasites were grown at 37° C., 2% hematocrit, O+ human erythrocytes (Australian Red Cross Blood Bank), 1% O2 4% CO2 95% N2 atmosphere. Sorbitol (Sigma-Aldrich) was used to synchronize cultures. 32. Persson K E, Lee C T, Marsh K, Beeson J G (2006) Development and optimization of high-throughput methods to measure Plasmodium falciparum-specific growth inhibitory antibodies. J Clin Microbiol 44: 1665-1673.33. Lambros C, Vanderberg J P (1979) Synchronization of Plasmodium falciparum erythrocytic stages in culture. J Parasitol 65: 418-420.
Heparin and K5 polysaccharides (Table 1) were tested for inhibitory activity against P. falciparum parasites using high throughput growth inhibitory assays (GlAs). Duplicate 25 μl suspensions of synchronized parasites, 2% parasitemia (32 hr trophozoite), 1% hematocrit with normal or enzymatically treated erythrocyctes, were incubated with inhibitory compounds in 96 well sterile U-bottom plates (Falcon). For humidification, outside wells were filled with sterile human tonicity phosphate-buffered saline (HT-PBS). Plates were incubated as for parasite culture for 44 hrs and analyzed. Parasites were stained with 10 μg/mL ethidium bromide (EtBr) (BioRad), HT-PBS, 1 hr in darkness. Cells were washed and re-suspended in 200 μL HT-PBS. Parasitemia was measured using FACSCalibur flow-cytometry. Data were analyzed using FlowJo (Tree Star), gating on intact erythrocytes and determining parasitemia by EtBr staining. Inhibitory effects of compounds were expressed as percent growth of uninhibited controls (HT-PBS) for each experiment.
Erythrocytes were treated with neuraminidase, chymotrypsin and trypsin as described previously. Erythrocytes were washed with RPMI-HEPES and incubated with neuraminidase ([…], 15 minutes), chymotrypsin (1 mg/mL, 45 minutes) or trypsin (100 μg/mL, […]) at 37° C. Neuraminidase treated bells were washed three times with RPMI-HEPES and chymotrypsin and trypsin treated cells were washed once with culture media and twice with RPMI-HEPES and then used in GIAs. 34. Persson K E, McCallum F J, Reiling L, Lister N A, Stubbs J, et al. (2008) Variation in use of erythrocyte invasion pathways by Plasmodium falciparum mediates evasion of human inhibitory antibodies. J Clin Invest 118: 342-351.

Heparin
successful invasion events observed [1]: no successful invasion observed | inhibition of different P. falciparum lines [2]: inhibited to similar levels | inhibition of different P. falciparum lines ([2]; listed as Heparin): inhibited all parasite lines tested; also recorded: inhibited at equal levels | inhibition of invasion into enzyme-treated versus control erythrocytes ([2]; 3D7, neuraminidase, trypsin, chymotrypsin treated erythrocytes): equivalent | IC50, inhibition of P. falciparum blood stage growth in GIA ([2]; 3D7 parasite line, one cycle of parasite growth): 19 µg/mL | selection of heparin-resistant parasites ([2]; 3D7 selected once or twice with heparin 100 μg/mL for 48 hrs): no evidence that Applicant were able to select for increased resistance | IC50 of heparin in combination with AMA1-binding peptide ([2]; AMA1-binding peptide at 6.25 μg/mL): ~3 µg/mL | parasite growth over one cycle of replication ([2]; heparin 100 μg/mL): a very low level of parasite growth | combination with pyrimethamine ([2]; heparin with increasing pyrimethamine): acted in an additive manner
